Source: paper PMC12557367, ““Precision on Two Wheels”–Structural Refinement of ^64Cu- and ^68Ga-Labeled Bicyclic Peptides Targeting Nectin‑4 for Improved Tumor Imaging: From Preclinical Development to First-in-Human Application” (Journal of Medicinal Chemistry, 2025)
Like-named read-outs stand apart in the source and are kept apart here. Numbered stars: 1 amine (or outer) side, 2 acyl side, 3 side chain; on linkers, the order of the positions; unused ones are H or OH. Bridge positions count the residues as written; N and C are the ends. Square brackets hold non-standard residues; d marks the D form. Peptide text beside a SMILES is read from it. * marks the point of attachment. DOTA = O=C(O)CN1CCN(CC(=O)O)CCN(CC(=O)*)CCN(CC(=O)O)CC1; TATA = O=C(CC[*:1])N1CN(C(=O)CC[*:2])CN(C(=O)CC[*:3])C1; X1 = O=C(O)CN1CCN(CC(=O)O)CCN([C@H](CCC(=O)*)C(=O)O)CC1; 1Nal = N[C@@H](Cc1cccc2ccccc12)C(=O)O; 2Nal = N[C@@H](Cc1ccc2ccccc2c1)C(=O)O; Hyp = O=C(O)[C@@H]1C[C@@H](O)CN1; hArg = N=C(N)NCCCC[C@H](N)C(=O)O; Met(O) = CS(=O)CC[C@H](N)C(=O)O; SeMet = C[Se]CC[C@H](N)C(=O)O; Nle = CCCC[C@H](N)C(=O)O

Legend:
HT-1376 cells = test: Saturation binding assay on intact cells; assay type: cell-based, human; conditions: ^68Ga-labeled ligand, intact HT-1376 cells, ±SD
Protocol: For the saturation binding assay, total and nonspecific binding were determined as described above using 10 different radioligand concentrations ([…]) prepared by serial 1:1 dilution. Plots of “total binding” = f(radioligand) were analyzed by nonlinear regressions using the model of “one site-total, accounting for ligand depletion” as implemented in GraphPad Prism, and Plots of “nonspecific binding” = f(radioligand) were analyzed by linear regressions.

[1] = n-Octanol/PBS distribution coefficient (logD 7.4); assay type: physicochemical
Protocol: The determination of logD 7.4 was performed in triplicate. A sample of the ^64Cu/^68Ga-labeled compound containing ≈1 MBq in a volume of 1 μL was added to a 1.5 mL Eppendorf tube containing 400 μL of PBS (pH 7.4) and 400 μL of n-Octanol (the phases were presaturated with each other). The tube was vortexed vigorously for 1 min and then centrifuged at 16,100g for 4 min to separate the phases. For sampling from the aqueous phase, the pipette tip was discharged while passing through the octanol layer. Then, the sample was taken within the aqueous phase. Any residual liquid was carefully removed by moving the tip along the inner wall of an Eppendorf tube. The radioactivity in a defined volume of each layer was measured (ISOMED 2100). The distribution coefficient was expressed as the logarithm of the ratio of counts per minute (cpm) measured in the n-Octanol phase to the cpm measured in the PBS phase.

[2] = target: T1, recombinant human nectin-4 (Homo sapiens, UniProt Q96NY8); test: FA-based competitive binding assay with probe 1a; conditions: for Hill coefficient n: competitive binding curve, variable slope
T1 construct: close to the value determined for the complete extracellular domain of nectin-4 (0.94 nM); purchased R&D Systems 2659-N4
T1 sequence (Q96NY8 32-349 limits assumed): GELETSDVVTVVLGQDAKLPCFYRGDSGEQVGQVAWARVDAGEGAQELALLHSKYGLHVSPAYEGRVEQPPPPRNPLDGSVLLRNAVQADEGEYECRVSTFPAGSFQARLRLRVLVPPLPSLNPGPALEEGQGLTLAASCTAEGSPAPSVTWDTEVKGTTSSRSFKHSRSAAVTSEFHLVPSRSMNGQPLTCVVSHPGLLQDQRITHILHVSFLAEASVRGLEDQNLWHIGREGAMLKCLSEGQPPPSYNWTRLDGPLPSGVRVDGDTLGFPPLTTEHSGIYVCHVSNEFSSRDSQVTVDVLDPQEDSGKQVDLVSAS
Protocol: For the competitive binding assay, a constant concentration of probe 1a (1 nM) and of nectin-4 (20 nM) was used, and the concentration of the competitors was varied over at least 3 orders of magnitude. […] Analysis of the curves by nonlinear regression according to dose–response inhibition with variable slope, as implemented in GraphPad Prism (see Experimental section), provided the IC50 value for displacing the probe from nectin-4.
All measurements were conducted at 37 °C over 1200 s (interval of 37 s) using a Cytation 5 multimode microplate reader (BioTek Instruments, Software Gen 5) and black 96-well microplates (BRANDplates with F-bottom wells). Experiments were conducted at an excitation wavelength of 540 nm and an emission wavelength of 620 nm. The FA (r) was calculated by Gen 5 software from the measured parallel and perpendicular fluorescence intensities (I ∥ and I ⊥, respectively) according to eq using a G factor of 0.87 (preset value). r=I∥−G×I⊥/I∥+2G×I⊥ 1
All further data analyses were conducted with GraphPad Prism (version 10.4.1, GraphPad Software, San Diego, CA, USA). The assay mixture (100 μL) contained an aqueous solution (99 μL) and DMSO (1%, v/v, 1 μL).
For the competitive binding assay, fixed concentrations of probe 1a (1 nM) and recombinant human nectin-4 (20 nM) and 10 concentrations of nonlabeled peptide (e.g., […] prepared as serial 1:1 dilution) were used (two separate experiments, each performed in duplicate). The corresponding stock solutions of 1a (2.5 nM) and nectin-4 (50 nM) were prepared in HEPES buffer, while the stock solutions of the nonlabeled peptides were prepared in 5% DMSO/HEPES buffer. nectin-4 (40 μL) and 1a (40 μL) were added to the wells, and the competition was started by the addition of the nonlabeled peptides (20 μL). The FA values were averaged over the time period of 1200 s, and plots of FA = f([peptide]) were analyzed by nonlinear regression according to the model “[inhibitor] vs. response – Variable slope (four parameters)” as implemented in GraphPad Prism. […] Therefore, the lower FA plateau was constrained to the FA value of probe 1a in the absence of nectin-4 and the competitor, which was recorded in each experiment.

[3] = target: T2, immobilized human nectin-4 (Homo sapiens, UniProt Q96NY8); test: SPR analysis of binding kinetics; conditions: ±SEM
T2 construct: close to the value determined for the complete extracellular domain of nectin-4 (0.94 nM); purchased R&D Systems 2659-N4
T2 sequence (Q96NY8 32-349 limits assumed): T1 sequence (Q96NY8 32-349 limits assumed)

[4] = Oxidation stability in H2O2 (radio-HPLC)
Protocol: To avoid a too rapid degradation of radiolabeled peptides, a low H2O2 concentration of 0.0012% was chosen. […] In this context, there are three further thioether functionalities in each peptide due to the cyclization of the Cys residues with TATA. In Figure , the curves for the time-dependent degradation of the intact radioligands are depicted, from which the respective half-lives were calculated.
The stability toward oxidizing conditions was assessed with H2O2. For this purpose, the radioligands (2 nmol, 48 μL of labeling mixture) were treated with H2O2 (2 μL of 0.03%, final concentration of 0.0012%) at ambient temperature. At distinct time points (3, 5, and 7 h), an aliquot of 2 μL was withdrawn and diluted with 48 μL of a mixture named “Supersol,” which consists of 20% ethanol, 0.5% Triton X-100, 5 mM EDTA, 0.5 mM o-phenanthroline, and 0.1% saponin. […] The resulting solutions were analyzed by radio-HPLC (same system as that used for analyzing the ^64Cu-labelings).

[5] = Small animal PET/CT imaging; parameters: species or system mice; conditions: mouse, in vivo
Protocol: (§1) All animal experiments were performed following the protocols evaluated and approved by the Landesdirektion Sachsen, Referat 25 – Veterinärwesen, Lebensmittelüberwachung and Pharmazie (09105 Chemnitz, Germany, ethics approval number: 25-5131/562/52). HT-1376- and 5637-derived tumor xenograft models were established in NMRI nude mice (Rj: NMRI-Foxn1nu/nu, Charles River Laboratories, Sulzfeld, Germany) by subcutaneous injection of 5 × 10^6 cells in 100 μL of PBS containing 50% (v/v) Matrigel (Corning Life Sciences, Amsterdam, The Netherlands).
(§2) When the tumor volume reached 200 mm^3, PET experiments with radiotracers were performed. Radiolabeling of the ligands was performed as described previously with an apparent molar activity of 25 MBq/nmol. The radioligand stock solution (pH 6.5 – 7.5) was diluted in 0.9% NaCl, and 200 μL containing ∼9 MBq ([…]) was injected per mouse intravenously into a lateral tail vein. For blocking of target-specific radioligand binding, 75 nmol of blocking substance (1d) was administered simultaneously with the radioligand. Coincidences were recorded continuously in a 2 h PET-scan starting with the injection. Additionally, a CT scan was performed for anatomical referencing and attenuation correction. PET/CT imaging, reconstruction, and tissue delineation were carried out as described previously.

[6] = system: HT-1376-derived tumor xenograft model; test: Small animal PET/CT imaging; parameters: species or system mice; conditions: mouse, in vivo
Protocol: as §1, §2

logD ([1]; pH 7.4, logD 7.4) | fold lower binding affinity compared to 1e ([2]; FA K d ratio) | Hill coefficient n [2] | half-life [4] | half-life ([5]; Blood half life fast [min]) | half-life ([5]; Blood half life slow [min]) | SMILES | also measured
-2.79 | 213 fold | 1.23 | – | – | – | CSCC[C@@H]1NC(=O)[C@@H]2CSCCC(=O)N3CN(CN(C3)C(=O)CCSC[C@H](NC(=O)CN3CCN(CC(=O)O)CCN(CC(=O)O)CCN(CC(=O)O)CC3)C(=O)N3CCC[C@H]3C(=O)N[C@@H](Cc3ccc4ccccc4c3)C(=O)N[C@H](CC(=O)O)C(=O)N2)C(=O)CCSC[C@@H](C(N)=O)NC(=O)[C@H](Cc2c[nH]c3ccccc23)NC(=O)[C@@H]2C[C@@H](O)CN2C(=O)[C@@H]2CCCN2C(=O)[C@H]([C@@H](C)O)NC(=O)[C@H](CO)NC(=O)[C@H](Cc2c[nH]c3ccccc23)NC(=O)[C@H](CC(=O)O)NC(=O)[C@H](CCCNC(=N)N)NC1=O [8c] ({DOTA}-CP[2Nal][dD]CMRDWSTP[Hyp]WC-NH2; linker 1-5-15 via TATA) | Kd (HT-1376 cells; 60 min, PBS wash, apparent): 0.103 µM; B max (fmol/mg) (HT-1376 cells): 799 (±136) fmol/mg; factor less potent than DOTA conjugate 1f ([2]; FA K d ratio): 21 fold; kon ([3]; HBS-P+ pH 7.4, 25 °C, read-out: k on (SPR, *10^6 M^–1 s^–1)): 20000 M⁻¹ s⁻¹; koff ([3]; pH 7.4, HBS-P+ pH 7.4, 25 °C, read-out: k off (SPR, *10^–3 s^–1)): 0.00239 s⁻¹
-2.53 | – | – | 1040 min | 1.24 ± 0.15 min | 38.2 ± 2.68 min | CCCC[C@@H]1NC(=O)[C@@H]2CSCCC(=O)N3CN(CN(C3)C(=O)CCSC[C@H](NC(=O)CC[C@H](C(=O)O)N3CCN(CC(=O)O)CCN(CC(=O)O)CC3)C(=O)N3CCC[C@H]3C(=O)N[C@@H](Cc3cccc4ccccc34)C(=O)N[C@H](CC(=O)O)C(=O)N2)C(=O)CCSC[C@@H](C(N)=O)NC(=O)[C@H](Cc2c[nH]c3ccccc23)NC(=O)[C@@H]2C[C@@H](O)CN2C(=O)[C@@H]2CCCN2C(=O)[C@H]([C@@H](C)O)NC(=O)[C@H](CO)NC(=O)[C@H](Cc2c[nH]c3ccccc23)NC(=O)[C@H](CC(=O)O)NC(=O)[C@H](CCCCNC(=N)N)NC1=O [[^64Cu]Cu-3a, metal not drawn] (X1-CP[1Nal][dD]C[Nle][hArg]DWSTP[Hyp]WC-NH2; linker 1-5-15 via TATA) | Percent fast [%] [6]: 85.43 ±1.50%; body retention at 2 h p.i. [6]: 70%; kidney uptake (SUVmean) at 2 h p.i. [6]: 25; time of highest tumor uptake [6]: ≈ 6 min
-2.51 | 34 fold | 1.07 | – | – | – | C[C@@H](O)[C@@H]1NC(=O)[C@H](CO)NC(=O)[C@H](Cc2c[nH]c3ccccc23)NC(=O)[C@H](CC(=O)O)NC(=O)[C@H](CCCCNC(=N)N)NC(=O)[C@H](CC[S+](C)[O-])NC(=O)[C@@H]2CSCCC(=O)N3CN(CN(C3)C(=O)CCSC[C@H](NC(=O)CC[C@H](C(=O)O)N3CCN(CC(=O)O)CCN(CC(=O)O)CC3)C(=O)N3CCC[C@H]3C(=O)N[C@@H](Cc3cccc4ccccc34)C(=O)N[C@H](CC(=O)O)C(=O)N2)C(=O)CCSC[C@@H](C(N)=O)NC(=O)[C@H](Cc2c[nH]c3ccccc23)NC(=O)[C@@H]2C[C@@H](O)CN2C(=O)[C@@H]2CCCN2C1=O (some centres unmarked) [compound 2] (X1-CP[1Nal][dD]C[Met(O)][hArg]DWSTP[Hyp]WC-NH2; linker 1-5-15 via TATA) | –
– | – | – | – | – | – | C[Se]CC[C@@H]1NC(=O)[C@@H]2CSCCC(=O)N3CN(CN(C3)C(=O)CCSC[C@H](NC(=O)CC[C@H](C(=O)O)N3CCN(CC(=O)O)CCN(CC(=O)O)CC3)C(=O)N3CCC[C@H]3C(=O)N[C@@H](Cc3cccc4ccccc34)C(=O)N[C@H](CC(=O)O)C(=O)N2)C(=O)CCSC[C@@H](C(N)=O)NC(=O)[C@H](Cc2c[nH]c3ccccc23)NC(=O)[C@@H]2C[C@@H](O)CN2C(=O)[C@@H]2CCCN2C(=O)[C@H]([C@@H](C)O)NC(=O)[C@H](CO)NC(=O)[C@H](Cc2c[nH]c3ccccc23)NC(=O)[C@H](CC(=O)O)NC(=O)[C@H](CCCCNC(=N)N)NC1=O [[^64Cu]Cu-5, metal not drawn] (X1-CP[1Nal][dD]C[SeMet][hArg]DWSTP[Hyp]WC-NH2; linker 1-5-15 via TATA) | half-life ([4]; half-life of intact radiolabeled peptide (T1/2), 0.0012% H2O2, 25 °C, one-phase decay): 22.8 min; half-life ([4]; half-life of intact radiolabeled peptide, 0.0012% H2O2): 23 min; logD ([1]; ^64Cu-labeled ligand, n-octanol/PBS pH 7.4, ±SD, read-out: logD 7.4): -2.37
-2.74 | – | – | 218 min | 1.21 ± 0.21 min | 32.5 ± 3.08 min | CSCC[C@@H]1NC(=O)[C@@H]2CSCCC(=O)N3CN(CN(C3)C(=O)CCSC[C@H](NC(=O)CC[C@H](C(=O)O)N3CCN(CC(=O)O)CCN(CC(=O)O)CC3)C(=O)N3CCC[C@H]3C(=O)N[C@@H](Cc3cccc4ccccc34)C(=O)N[C@H](CC(=O)O)C(=O)N2)C(=O)CCSC[C@@H](C(N)=O)NC(=O)[C@H](Cc2c[nH]c3ccccc23)NC(=O)[C@@H]2C[C@@H](O)CN2C(=O)[C@@H]2CCCN2C(=O)[C@H]([C@@H](C)O)NC(=O)[C@H](CO)NC(=O)[C@H](Cc2c[nH]c3ccccc23)NC(=O)[C@H](CC(=O)O)NC(=O)[C@H](CCCCNC(=N)N)NC1=O [[^64Cu]Cu-1e, metal not drawn] | –
